Test results published in paper PMC8307506, “Identification of Dihydromyricetin and Metabolites in Serum and Brain Associated with Acute Anti-Ethanol Intoxicating Effects in Mice” (International Journal of Molecular Sciences, 2021).
Like-named read-outs stand apart in the source and are kept apart here.

Assay: Serum pharmacokinetics of DHM after PO and IP administration
Format: in vivo, mice
Settings: for Tmax / half-life / Cmax / AUC(0-t): C57BL/6J, mouse, serum; for half-life: read-out: Serum T1/2 (converted); for IP AUC0→24 relative to PO AUC0→24: DHM 50 mg/kg; for Cmax / AUC(0-t): 50 mg/kg; for AUC(0-t): read-out: Serum AUC0→24
Description: Eight-week-old male and female C57BL/6J mice (Jackson’s Laboratories, Bar Harbor, ME, USA) were housed 4 mice to a cage (separated by sex) and maintained on 12-h light, 12-h dark cycles (lights on at 0700 h) in the animal facility at the Department of Animal Sciences, Rutgers University. Following 1-week acclimation, animals were given ad libitum access to water and a polyphenol-free diet (PFD; 3.82 kcal/g, 10% fat, 20% protein, 70% carbohydrate; D12450H; Research Diets, Inc., New Brunswick, NJ, USA) for at least 10 days. For PK studies, after an overnight fast, mice were administered 50 mg/kg DHM (dissolved in 0.9% saline with 10% DMSO) by either IP injection or oral gavage. Oral gavage was performed using single-use, sterile plastic feeding tubes for mice (20 ga × 30 mm; cat# FTP-20-30, Instech Laboratories, (Plymouth Meeting, PA, USA). Mice were deeply anesthetized with 5% isoflurane mixed with oxygen, and blood was collected by cardiac puncture. Following cardiac puncture, animals were exsanguinated and transcardial perfusion with 0.9% saline was performed to ensure blood removal from the brain tissue. Blood and brain samples were collected from a total of 85 mice at 0.25, 0.75, 1.5, 3, 6, 12, 24 h (3–4 mice for each sex and timepoint). Tissues were immediately homogenized with 0.2% formic acid at 1:2 (w/v), and frozen at −80 °C until analysis. Blood was centrifuged at 3000× g for 10 min at 4 °C to isolate serum. For efficacy studies, mice (n = 8/sex) were fasted at 5 h prior to Ethanol gavage 5 g/kg (37% Ethanol in water). DHM 50 mg/kg IP (dissolved in 0.9% saline with 10% DMSO) was administered at 0, 15, 45, 90 and 180 min prior to Ethanol oral gavage. Each mouse was tested at each time point 7 days apart over 6-week period. At the time of Ethanol gavage, mice were placed in oversized conical holders (L: 152 mm X W: 37 mm) and observed for ability to return upright upon being placed in a supine position. Duration of LORR was determined by ability to return upright 3 times within 30 s. To determine whether ethanol-induced tolerance developed, one week (Week 1; Baseline) prior to the 6-week repeated DHM dosing study all mice were oral dose with ethanol (5 g/kg) without any IP injection and LORR was measured. Mice were then re-tested in a similar fashion with oral ethanol 1 week after the DHM 6-week period (Week 8; Post). […] All animal studies were approved by the Institutional Animal Care and Use Committee of Rutgers University (Bello; PROTO999900014, OLAW #A3262-01, 15 March 2017) and complied with NIH Guide for the Care and Use of Laboratory Animals.
All serum samples were stored at −80 °C and conditioned to room temperature prior to analysis. An aliquot of 100 µL of serum, 20 µL 4M HCl, and 50 µL of internal standard (IS) solution (417 ng/mL isoquercetin in EtOAc) were combined in an Eppendorf tube. An aliquot of 500 µL of EtOAc was added and samples were vortexed for 30 s. Samples were then centrifuged at 3000× g for 2 min and the supernatant transferred to a glass vial. Samples were extracted 2 more times with EtOAc and the supernatant added to the corresponding vial containing 10 µL of 2% ascorbic acid in methanol (MeOH). Samples were then dried under vacuum, reconstituted with 100 µL of 45% MeOH in water with 0.1% formic acid (FA), centrifuged at 16,000× g for 10 min and transferred to an HPLC vial for analysis.
An Agilent 1290 Infinity II UPLC system interfaced with an Agilent 6470 Triple Quadrupole Mass Spectrometer with an electrospray ionization source (Agilent Technology, Palo Alto, CA, USA) was used for sample analysis. An Waters Acquity UPLC BEH C8 column (2.1 × 150 mm, 1.7 μm) (Milford, MA, USA) column with a VanGuard Acquity C8 guard column (2.1 × 5 mm, 1.7 μm) (Milford, MA, USA) was used for chromatographic separation. The binary mobile phases consisted of water with 0.1% FA (phase A) and acetonitrile (ACN) with 0.1% formic acid (phase B). The flow rate was set at 0.450 mL/min. […]

[1] = female, ip, female mice, DHM 50 mg/kg IP
[2] = female, ip, female mice, DHM 50 mg/kg IP, mean ± SEM
[3] = female, po, female mice, DHM 50 mg/kg PO
[4] = female, po, female mice, DHM 50 mg/kg PO, mean ± SEM
[5] = male, ip, male mice, DHM 50 mg/kg IP
[6] = male, ip, male mice, DHM 50 mg/kg IP, mean ± SEM
[7] = male, po, male mice, DHM 50 mg/kg PO
[8] = male, po, male mice, DHM 50 mg/kg PO, mean ± SEM

Structure (SMILES): O=C1c2c(O)cc(O)cc2O[C@H](c2cc(O)c(O)c(O)c2)[C@H]1O [DHM, Dihydromyricetin]
- Tmax (female mice, DHM 50 mg/kg IP): 15 min
- half-life (female mice, DHM 50 mg/kg IP): 45.6 min
- Tmax (female mice, DHM 50 mg/kg PO): 15 min
- half-life (female mice, DHM 50 mg/kg PO): 110 min
- Tmax (male mice, DHM 50 mg/kg IP): 15 min
- half-life (male mice, DHM 50 mg/kg IP): 95.4 min
- Tmax (male mice, DHM 50 mg/kg PO): 15 min
- half-life (male mice, DHM 50 mg/kg PO): 115 min
- PO exposure levels in male mice relative to female mice (DHM 50 mg/kg PO): 3.5 times
- IP AUC0→24 relative to PO AUC0→24 (female mice): 23.8 fold
- Serum AUC0→24 (female mice, DHM 50 mg/kg PO): 0.7 µM·h
- IP AUC0→24 relative to PO AUC0→24 (female mice, listed as dihydromyricetin): 7.2 fold
- Cmax [1]: 23.8 µM
- Cmax [2]: 23.8 µM
- AUC(0-t) [2]: 17.4 µM·h
- AUC(0-t) [1]: 17.3 µM·h
- Cmax [3]: 0.62 µM
- Cmax [4]: 0.623 ± 0.159 µM
- AUC(0-t) [4]: 0.728 ± 0.461 µM·h
- AUC(0-t) [3]: 0.728 µM·h
- IP AUC0→24 relative to PO AUC0→24 (male mice): 7.2 fold
- Serum AUC0→24 (male mice, DHM 50 mg/kg PO): 2.5 µM·h
- IP AUC0→24 relative to PO AUC0→24 (male mice, listed as dihydromyricetin): 23.8 fold
- Cmax [5]: 38.3 µM
- Cmax [6]: 38.3 µM
- AUC(0-t) [6]: 18.1 µM·h
- AUC(0-t) [5]: 18.1 µM·h
- Cmax [7]: 1.9 µM
- Cmax [8]: 1.89 ± 0.59 µM
- AUC(0-t) [8]: 2.51 ± 0.988 µM·h
- AUC(0-t) [7]: 2.51 µM·h
